In PubChem BioAssay AID248 (DTP/NCI, 2004):
“And” between values parts separate entries of the source, which are not always exact repeats. Equal values may be shown once. Toxic doses and inconclusive results are not listed. No stated cut-off is given here; in the data, active means T/C of 150% or more; inactive means T/C below 125%.

Test system: L1210 leukemia ip in BDF1 mice, survival T/C
Experiment: NCI In Vivo Anticancer Drug Screen. Data for tumor model L1210 Leukemia (intraperitoneal) in B6D2F1 (BDF1) mice
Conditions: endpoint: mean survival time, higher = longer survival
Summary of the method: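 Tumor cells were implanted, animals were treated, and survival was followed. The result divides the treated measurement by the vehicle-control measurement.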

[1] = dose: 100.0 mg/kg/injection, schedule: Q01DX001 (ip), vehicle: saline
[2] = dose: 200.0 mg/kg/injection, schedule: Q01DX001 (ip), vehicle: saline
[3] = dose: 400.0 mg/kg/injection, schedule: Q01DX001 (ip), vehicle: saline
[4] = dose: 100.0 mg/kg/injection, schedule: Q01DX009 (ip), vehicle: Klucel (hydroxypropylcellulose) (HPC)
[5] = dose: 200.0 mg/kg/injection, schedule: Q01DX009 (ip), vehicle: Klucel (hydroxypropylcellulose) (HPC)
[6] = dose: 400.0 mg/kg/injection, schedule: Q01DX009 (ip), vehicle: Klucel (hydroxypropylcellulose) (HPC)
[7] = dose: 100.0 mg/kg/injection, schedule: Q01DX009 (ip), vehicle: saline
[8] = dose: 100.0 mg/kg/injection, schedule: Q04DX002 (ip), vehicle: saline with Tween-80
[9] = dose: 50.0 mg/kg/injection, schedule: Q01DX009 (ip), vehicle: saline
[10] = dose: 100.0 mg/kg/injection, schedule: Q04DX003 (ip), vehicle: Klucel (hydroxypropylcellulose) (HPC)
[11] = dose: 200.0 mg/kg/injection, schedule: Q04DX003 (ip), vehicle: Klucel (hydroxypropylcellulose) (HPC)
[12] = dose: 400.0 mg/kg/injection, schedule: Q04DX003 (ip), vehicle: Klucel (hydroxypropylcellulose) (HPC)
[13] = dose: 100.0 mg/kg/injection, schedule: Q04DX003 (ip), vehicle: other
[14] = dose: 200.0 mg/kg/injection, schedule: Q04DX003 (ip), vehicle: other
[15] = dose: 400.0 mg/kg/injection, schedule: Q04DX003 (ip), vehicle: other

Measured: T/C

O=S1(=O)CC(c2ccc(Br)cc2)Nc2ccccc21 (configuration not stated)
inactive: [1] 98 % of control | dose: 100.0 mg/kg/injection, schedule: Q04DX003 (ip), vehicle: acetone 97 % of control | [2] 101 % of control | dose: 200.0 mg/kg/injection, schedule: Q04DX003 (ip), vehicle: acetone 100 % of control | [3] 98 % of control | dose: 400.0 mg/kg/injection, schedule: Q04DX003 (ip), vehicle: acetone 100 % of control

O=C(CCl)N1CCC(CC2(c3cc4ccccc4[nH]3)OCCO2)CC1
inactive: dose: 100.0 mg/kg/injection, schedule: Q04DX002 (ip), vehicle: other 97 % of control | dose: 200.0 mg/kg/injection, schedule: Q04DX002 (ip), vehicle: other 90 % of control | dose: 400.0 mg/kg/injection, schedule: Q04DX002 (ip), vehicle: other 94 % of control

COC(=O)c1nn2c(=O)c3cccc4cccc(c43)c2c1C(=O)OC
inactive: [4] 95 % of control | [5] 98 % of control | [6] 100 % of control

O=C(Nc1cccc(C2=NCCN2)c1)c1ccc(N=Nc2ccc(C(=O)Nc3cccc(C4=NCCN4)c3)cc2)cc1
inactive: dose: 93.0 mg/kg/injection, schedule: Q01DX Z (ip), vehicle: water 93 % of control | dose: 186.0 mg/kg/injection, schedule: Q01DX Z (ip), vehicle: water 100 % of control

COC(=O)c1ccc([N+](=O)[O-])cc1O
inactive: dose: 100.0 mg/kg/injection, schedule: Q04DX003 (ip), vehicle: saline with Tween-80 101 % of control | dose: 200.0 mg/kg/injection, schedule: Q04DX003 (ip), vehicle: saline with Tween-80 102 % of control | dose: 400.0 mg/kg/injection, schedule: Q04DX003 (ip), vehicle: saline with Tween-80 104 % of control

O=C(O)C(=O)/C=C/c1cccc([N+](=O)[O-])c1
inactive: [1] 96 % of control | [7] 106 % of control | [2] 96 % of control | dose: 200.0 mg/kg/injection, schedule: Q01DX009 (ip), vehicle: saline 95 % of control | [3] 102 % of control

OC(c1ccccc1)(c1ccccc1)C1C(=C(c2ccccc2)c2ccccc2)C1c1ccccc1 (configuration not stated)
inactive: dose: 100.0 mg/kg/injection, schedule: Q01DX001 (ip), vehicle: steriod suspending solution 104 % of control | dose: 200.0 mg/kg/injection, schedule: Q01DX001 (ip), vehicle: steriod suspending solution 93 % of control | dose: 400.0 mg/kg/injection, schedule: Q01DX001 (ip), vehicle: steriod suspending solution 95 % of control

CCCCCCNC(=S)Nc1ccccc1
inactive: dose: 50.0 mg/kg/injection, schedule: Q01DX001 (ip), vehicle: saline 97 % of control | [1] 103 % of control | [2] 97 % of control

CNc1cc(N2CCCC2)ccn1
inactive: dose: 5.0 mg/kg/injection, schedule: Q01DX001 (ip), vehicle: saline 104 % of control | dose: 10.0 mg/kg/injection, schedule: Q01DX001 (ip), vehicle: saline 110 % of control

CN1CCC2(CC1)C(=O)N(Nc1ccccc1)C(=O)C2c1ccccc1 (configuration not stated)
inactive: dose: 100.0 mg/kg/injection, schedule: Q04DX002 (ip), vehicle: Klucel (hydroxypropylcellulose) (HPC) 101 % of control | dose: 200.0 mg/kg/injection, schedule: Q04DX002 (ip), vehicle: Klucel (hydroxypropylcellulose) (HPC) 93 % of control

O=S(=O)(F)c1ccc(S)c(Cl)c1Cl
inactive: dose: 25.0 mg/kg/injection, schedule: Q04DX002 (ip), vehicle: saline with Tween-80 102 % of control | dose: 50.0 mg/kg/injection, schedule: Q04DX002 (ip), vehicle: saline with Tween-80 91 % of control | [8] 89 % of control

Cc1cc([N+](=O)[O-])cc(C)c1OC(=O)c1ccc(N=C(N)N)cc1
inactive: dose: 3.12 mg/kg/injection, schedule: Q01DX009 (ip), vehicle: saline 94 % of control | dose: 6.25 mg/kg/injection, schedule: Q01DX009 (ip), vehicle: saline 93 % of control | dose: 12.5 mg/kg/injection, schedule: Q01DX009 (ip), vehicle: saline 103 % of control | dose: 25.0 mg/kg/injection, schedule: Q01DX009 (ip), vehicle: saline 97 % of control and 107 % of control | dose: 25.0 mg/kg/injection, schedule: Q04DX003 (ip), vehicle: saline 111 % of control | [9] 103 % of control and 92 % of control | dose: 50.0 mg/kg/injection, schedule: Q04DX003 (ip), vehicle: saline 105 % of control | dose: 100.0 mg/kg/injection, schedule: Q04DX003 (ip), vehicle: saline 100 % of control

COC(=O)c1c(I)cccc1[N+](=O)[O-]
inactive: [4] 92 % of control | [10] 97 % of control | [5] 91 % of control | [11] 103 % of control | [6] 96 % of control | [12] 97 % of control

COC(C)(C)C(N)C(=O)O (configuration not stated)
inactive: dose: 100.0 mg/kg/injection, schedule: Q01DX001 (ip), vehicle: other 102 % of control | [13] 120 % of control | dose: 200.0 mg/kg/injection, schedule: Q01DX001 (ip), vehicle: other 102 % of control | [14] 114 % of control | dose: 400.0 mg/kg/injection, schedule: Q01DX001 (ip), vehicle: other 102 % of control | [15] 96 % of control

NCCc1cc(O)c(O)c(O)c1
inactive: [9] 104 % of control | [7] 113 % of control

CC1(C)CCOc2ccccc21
inactive: dose: 50.0 mg/kg/injection, schedule: Q01DX009 (ip), vehicle: saline with Tween-80 88 % of control | dose: 100.0 mg/kg/injection, schedule: Q01DX009 (ip), vehicle: saline with Tween-80 94 % of control

CC(C)OC(=O)Nc1ccc(Cl)cn1
inactive: [10] 103 % of control | [11] 101 % of control | [12] 95 % of control

CCc1c(N)nc(=O)[nH]c1C(=O)O
inactive: dose: 100.0 mg/kg/injection, schedule: Q01DX001 (ip), vehicle: Klucel (hydroxypropylcellulose) (HPC) 115 % of control | [10] 96 % of control | dose: 200.0 mg/kg/injection, schedule: Q01DX001 (ip), vehicle: Klucel (hydroxypropylcellulose) (HPC) 118 % of control | [11] 100 % of control | dose: 400.0 mg/kg/injection, schedule: Q01DX001 (ip), vehicle: Klucel (hydroxypropylcellulose) (HPC) 117 % of control | [12] 104 % of control

O=C(Nc1ccccc1F)c1ccc(Cl)c(Cl)c1
inactive: [10] 98 % of control | [5] 92 % of control | [11] 96 % of control | [6] 86 % of control | [12] 93 % of control

CCS(=O)(=O)/C=C/c1ccc(NC(C)=O)cc1
inactive: [8] 122 % of control | dose: 200.0 mg/kg/injection, schedule: Q04DX002 (ip), vehicle: saline with Tween-80 98 % of control | dose: 400.0 mg/kg/injection, schedule: Q04DX002 (ip), vehicle: saline with Tween-80 91 % of control

CCC[CH2][Sn]([Cl])([Cl])[CH2]CCC.c1ccncc1
inactive: dose: 3.0 mg/kg/injection, schedule: Q01DX009 (ip), vehicle: Klucel (hydroxypropylcellulose) (HPC) 93 % of control | dose: 6.0 mg/kg/injection, schedule: Q01DX009 (ip), vehicle: Klucel (hydroxypropylcellulose) (HPC) 107 % of control | dose: 12.0 mg/kg/injection, schedule: Q01DX009 (ip), vehicle: Klucel (hydroxypropylcellulose) (HPC) 92 % of control | dose: 12.5 mg/kg/injection, schedule: Q01DX009 (ip), vehicle: Klucel (hydroxypropylcellulose) (HPC) 87 % of control | dose: 12.5 mg/kg/injection, schedule: Q04DX002 (ip), vehicle: Klucel (hydroxypropylcellulose) (HPC) 91 % of control | dose: 25.0 mg/kg/injection, schedule: Q04DX002 (ip), vehicle: Klucel (hydroxypropylcellulose) (HPC) 106 % of control

O=C(Nc1cccc(C2=NCCN2)c1)c1ccc(C(=O)Nc2cccc(C3=NCCN3)c2)c([N+](=O)[O-])c1
inactive: dose: 1.25 mg/kg/injection, schedule: Q01DX Z (ip), vehicle: saline 93 % of control | dose: 2.5 mg/kg/injection, schedule: Q01DX Z (ip), vehicle: saline 90 % of control | dose: 5.0 mg/kg/injection, schedule: Q01DX Z (ip), vehicle: saline 86 % of control

CCOC(=O)C1CCCN(S(=O)(=O)c2ccc(C)cc2)c2ccccc2C1=O (configuration not stated)
inactive: [10] 93 % of control | [11] 102 % of control | [12] 94 % of control

O=C(O)C(F)(F)C(F)(F)F.[Ag]
inactive: dose: 75.0 mg/kg/injection, schedule: Q01DX001 (ip), vehicle: acetone 87 % of control

COc1c(C)c(C)c(OC)c(C(C)O)c1C (configuration not stated)
inactive: [13] 92 % of control | [14] 100 % of control | [15] 97 % of control
